These results are taken from publication PMC6315694, “Synthesis of Pseudellone Analogs and Characterization as Novel T-type Calcium Channel Blockers” (Marine Drugs, 2018).

For test [1], the target named is T1, human CaV3.1 (Homo sapiens, UniProt O43497).
T1 construct: expressed in transfected cells; host or cells: HEK 293T, transient transfection (FuGENE HD)
Description: T-type calcium channel window current FLIPR assay, CaV3.1. The test is classed as cell-based. The protocol: (§1) The human embryonic kidney 293 (HEK 293) cell lines (from Emmanuel Bourinet, Montpellier, France) stably expressing CaV3.2 or CaV3.3 were cultured under 5% carbon dioxide at 37 °C in Dulbecco’s Modified Eagle Medium (DMEM) Glutamax (Gibco, Life Technologies, Carlsbad, CA, USA) supplemented with 10% (v/v) fetal bovine serum (FBS), 100 U/mL penicillin, 100 μg/mL streptomycin (Gibco, Life Technologies), and 750 μg/mL geneticin (G418) (Gibco, Life Technologies). The Chinese Hamster Ovary (CHO) cell lines (Emmanuel Bourinet, Montpellier, France) expressing CaV3.1 were cultured under 5% carbon dioxide at 37 °C in Alpha Minimum Essential Media (MEM) Glutamax (Gibco, Life Technologies), supplemented with 10% (v/v) fetal bovine serum (FBS) and 300 μg/mL geneticin (G418) (Gibco, Life Technologies). The human neuroblastoma SH-SY5 Y cells (Victor Diaz, Goettingen, Germany) were cultured under 5% carbon dioxide at 37 °C in RPMI 1640 antibiotic-free medium (Invitrogen, Carlsbad, CA, USA), supplemented with 15% FBS and 2 mM GlutaMAX™ (Invitrogen). D-PBS (Gibco, Life Technologies) was used to wash the cells, and 0.25% Trypsin-EDTA (Gibco, Life Technologies) was used to detach cells from the flask surface. They were split in a ratio of 1:5 (ideally 1000 cells/cm^2) when they reached 70%–80% confluence (every 2–3 days). Transiently transfected CaV3.1HEK293 T cells were used in FLIPR Assays. HEK 293 T cells were cultured under 5% carbon dioxide at 37 °C in DMEM supplemented with 10% (v/v) FBS. D-PBS was used to wash the cells, and 0.25% Trypsin-EDTA was used to detach cells from the flask surface. The cells were split and seeded at 6 million cells per T175 flask, to reach 70%–80% confluence after 24 h. The next day, 12 μg DNA of human CaV3.1 was incubated in 900 μL serum-free DMEM with 36 μL FuGENE HD transfection reagent (Promega Corporation, Madison, WI, US) (1:3 DNA/Fugene ratio) for 20 min, and then the mixture was added into the cell flask slowly, drop by drop. After the transfection, the cells were cultured under 5% carbon dioxide at 37 °C for 24 h and then moved to a 28 °C incubator.
(§2) HEK 293 cells stably expressing CaV3.2 or CaV3.3 were seeded into 384-well black wall clear bottom plates (Corning, Lowell, MA, USA) at a density of 30,000 cells per well. Transiently transfected CaV3.1HEK293 T cells were seeded into 384-well black wall clear bottom plates at a density of 60,000 cells per well. Once the cells reached 90%–95% confluence after 24 h, the media were removed from the wells and replaced with 20 μL of 10% calcium 4 dye (Molecular Devices, Sunnyvale, CA, USA) in HBSS-HEPES (containing 5 mM KCl, 10 mM HEPES, 140 mM NaCl, 10 mM glucose, and 0.5 mM CaCl2, pH 7.4) with 0.1% bovine serum albumin (BSA). The cells were incubated for 30 min at 37 °C in the presence of 5% carbon dioxide. Each well on the reagent plates for the first addition contained 15 μL different concentrations of compounds dissolved in HBSS-HEPES containing 0.1% BSA and <0.1% DMSO and was incubated for 20 min after loading. Positive and negative controls contained 15 μL of HBSS-HEPES (0.1% BSA) alone. The plates were placed in the FLIPR^TETRA (Molecular Devices, Sunnyvale, CA, USA) programmed to measure maximum fluorescence intensity following a second addition of the agonist 5 mM CaCl2. The data acquisition parameters were adjusted as follows: Baseline fluorescence of 1500–2000 arbitrary fluorescence units (AFU), emission wavelength of 515–575 nm, and excitation wavelength of 470–495 nm. HBSS-HEPES (0.1% BSA) was used in the second addition as a negative control. One fluorescence reading was taken before the second addition. Then the fluorescence readings were recorded every two seconds for 300 s. Raw fluorescence readings in the form of relative light units were converted to response over baseline using ScreenWorks® (Molecular Devices, version 3.2.0.14) software.
(§3) Data were plotted and analyzed using GraphPad Prism v7.0 (GraphPad Software Inc., San Diego, CA, USA).

Test [2] deals with CaV3.2 (Homo sapiens, UniProt O95180). Description: T-type calcium channel window current FLIPR assay, CaV3.2. The test is classed as cell-based. How it is done: as §1, §2, §3
In test [3] the target is CaV3.3 (Homo sapiens, UniProt Q9P0X4). Description: T-type calcium channel window current FLIPR assay, CaV3.3. The test is classed as cell-based. The protocol: as §1, §2, §3
In test [4] the test system is L-type calcium channel (CaV1). Description: HVA calcium channel FLIPR assay, L-type (SH-SY5Y cells). The test is classed as cell-based, human. The following applies: 1 µM CVID present, N = 3, mean ± SEM, read-out: IC50 CaV1 (HVA CaVs). How it is done:
as §1
SH-SY5Y cells were seeded into 384-well black wall clear bottom plates at a density of 15,000 cells per well, resulting in 90%–95% confluence after 24 h. […] The fluorescence readings were recorded and converted as described previously, and agonist containing 90 mM KCl + 5 mM CaCl2 was used in the second addition.
Data were plotted and analyzed using GraphPad Prism v7.0 (GraphPad Software Inc., San Diego, CA, USA). […]

Like-named read-outs stand apart in the source and are kept apart here.

Chain of CaV3.2 (O95180 whole entry): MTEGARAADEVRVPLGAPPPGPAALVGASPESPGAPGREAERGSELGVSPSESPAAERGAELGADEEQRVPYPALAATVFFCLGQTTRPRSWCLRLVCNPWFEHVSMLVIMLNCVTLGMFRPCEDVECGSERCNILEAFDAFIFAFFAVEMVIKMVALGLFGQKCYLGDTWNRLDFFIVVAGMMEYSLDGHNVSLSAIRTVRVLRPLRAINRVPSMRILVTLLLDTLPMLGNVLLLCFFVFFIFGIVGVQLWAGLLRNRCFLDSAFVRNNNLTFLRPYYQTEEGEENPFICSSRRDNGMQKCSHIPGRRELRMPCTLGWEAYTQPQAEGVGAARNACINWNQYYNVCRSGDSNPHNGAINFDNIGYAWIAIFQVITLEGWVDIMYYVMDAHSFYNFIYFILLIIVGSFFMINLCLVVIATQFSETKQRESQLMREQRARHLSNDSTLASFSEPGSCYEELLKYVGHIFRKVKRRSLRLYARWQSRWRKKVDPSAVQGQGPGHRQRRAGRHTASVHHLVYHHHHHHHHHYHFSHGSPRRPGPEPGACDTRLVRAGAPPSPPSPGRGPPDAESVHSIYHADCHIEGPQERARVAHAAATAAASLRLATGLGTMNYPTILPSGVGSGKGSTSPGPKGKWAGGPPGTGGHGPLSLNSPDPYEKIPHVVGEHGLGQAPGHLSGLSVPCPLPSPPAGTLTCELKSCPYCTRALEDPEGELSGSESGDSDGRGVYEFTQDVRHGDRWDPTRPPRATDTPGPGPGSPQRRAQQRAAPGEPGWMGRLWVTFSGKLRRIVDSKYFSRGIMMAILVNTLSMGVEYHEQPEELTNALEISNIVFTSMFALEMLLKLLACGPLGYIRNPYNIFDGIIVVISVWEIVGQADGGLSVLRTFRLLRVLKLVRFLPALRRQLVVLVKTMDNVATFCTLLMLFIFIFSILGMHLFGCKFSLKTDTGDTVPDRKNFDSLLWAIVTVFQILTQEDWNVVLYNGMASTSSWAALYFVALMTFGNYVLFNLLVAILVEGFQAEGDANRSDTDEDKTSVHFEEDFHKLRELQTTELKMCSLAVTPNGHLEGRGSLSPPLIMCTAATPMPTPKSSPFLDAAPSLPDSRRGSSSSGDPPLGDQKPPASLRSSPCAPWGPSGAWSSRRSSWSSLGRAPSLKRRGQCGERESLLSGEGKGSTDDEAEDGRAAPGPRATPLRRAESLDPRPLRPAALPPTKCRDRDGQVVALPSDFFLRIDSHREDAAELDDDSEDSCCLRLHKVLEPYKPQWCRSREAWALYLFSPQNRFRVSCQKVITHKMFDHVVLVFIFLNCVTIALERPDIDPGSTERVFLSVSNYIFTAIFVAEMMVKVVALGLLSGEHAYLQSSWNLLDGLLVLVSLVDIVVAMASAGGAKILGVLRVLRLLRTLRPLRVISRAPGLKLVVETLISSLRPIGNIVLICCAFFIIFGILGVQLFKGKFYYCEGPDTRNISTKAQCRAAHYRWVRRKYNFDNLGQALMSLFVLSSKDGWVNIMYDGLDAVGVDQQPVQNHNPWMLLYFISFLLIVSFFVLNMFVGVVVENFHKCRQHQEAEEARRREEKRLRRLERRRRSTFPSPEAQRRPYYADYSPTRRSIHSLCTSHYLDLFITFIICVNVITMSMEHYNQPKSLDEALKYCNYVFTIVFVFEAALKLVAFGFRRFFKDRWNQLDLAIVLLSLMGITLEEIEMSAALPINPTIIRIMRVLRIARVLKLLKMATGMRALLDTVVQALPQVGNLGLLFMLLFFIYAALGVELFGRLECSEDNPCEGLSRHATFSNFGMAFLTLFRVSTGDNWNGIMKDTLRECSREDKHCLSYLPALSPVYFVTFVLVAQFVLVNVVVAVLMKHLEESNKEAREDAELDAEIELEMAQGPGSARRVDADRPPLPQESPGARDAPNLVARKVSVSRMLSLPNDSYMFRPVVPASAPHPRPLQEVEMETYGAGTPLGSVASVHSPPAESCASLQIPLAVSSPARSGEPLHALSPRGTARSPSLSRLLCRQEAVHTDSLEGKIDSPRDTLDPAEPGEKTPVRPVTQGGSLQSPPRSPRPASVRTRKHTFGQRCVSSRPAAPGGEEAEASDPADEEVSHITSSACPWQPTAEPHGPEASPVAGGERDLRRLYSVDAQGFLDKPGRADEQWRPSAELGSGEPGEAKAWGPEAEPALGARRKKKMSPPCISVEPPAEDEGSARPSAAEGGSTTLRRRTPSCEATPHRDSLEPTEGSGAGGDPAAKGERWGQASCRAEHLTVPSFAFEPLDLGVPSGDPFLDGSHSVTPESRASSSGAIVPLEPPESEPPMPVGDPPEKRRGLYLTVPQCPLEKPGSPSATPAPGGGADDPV
Chain of CaV3.3 (Q9P0X4 whole entry): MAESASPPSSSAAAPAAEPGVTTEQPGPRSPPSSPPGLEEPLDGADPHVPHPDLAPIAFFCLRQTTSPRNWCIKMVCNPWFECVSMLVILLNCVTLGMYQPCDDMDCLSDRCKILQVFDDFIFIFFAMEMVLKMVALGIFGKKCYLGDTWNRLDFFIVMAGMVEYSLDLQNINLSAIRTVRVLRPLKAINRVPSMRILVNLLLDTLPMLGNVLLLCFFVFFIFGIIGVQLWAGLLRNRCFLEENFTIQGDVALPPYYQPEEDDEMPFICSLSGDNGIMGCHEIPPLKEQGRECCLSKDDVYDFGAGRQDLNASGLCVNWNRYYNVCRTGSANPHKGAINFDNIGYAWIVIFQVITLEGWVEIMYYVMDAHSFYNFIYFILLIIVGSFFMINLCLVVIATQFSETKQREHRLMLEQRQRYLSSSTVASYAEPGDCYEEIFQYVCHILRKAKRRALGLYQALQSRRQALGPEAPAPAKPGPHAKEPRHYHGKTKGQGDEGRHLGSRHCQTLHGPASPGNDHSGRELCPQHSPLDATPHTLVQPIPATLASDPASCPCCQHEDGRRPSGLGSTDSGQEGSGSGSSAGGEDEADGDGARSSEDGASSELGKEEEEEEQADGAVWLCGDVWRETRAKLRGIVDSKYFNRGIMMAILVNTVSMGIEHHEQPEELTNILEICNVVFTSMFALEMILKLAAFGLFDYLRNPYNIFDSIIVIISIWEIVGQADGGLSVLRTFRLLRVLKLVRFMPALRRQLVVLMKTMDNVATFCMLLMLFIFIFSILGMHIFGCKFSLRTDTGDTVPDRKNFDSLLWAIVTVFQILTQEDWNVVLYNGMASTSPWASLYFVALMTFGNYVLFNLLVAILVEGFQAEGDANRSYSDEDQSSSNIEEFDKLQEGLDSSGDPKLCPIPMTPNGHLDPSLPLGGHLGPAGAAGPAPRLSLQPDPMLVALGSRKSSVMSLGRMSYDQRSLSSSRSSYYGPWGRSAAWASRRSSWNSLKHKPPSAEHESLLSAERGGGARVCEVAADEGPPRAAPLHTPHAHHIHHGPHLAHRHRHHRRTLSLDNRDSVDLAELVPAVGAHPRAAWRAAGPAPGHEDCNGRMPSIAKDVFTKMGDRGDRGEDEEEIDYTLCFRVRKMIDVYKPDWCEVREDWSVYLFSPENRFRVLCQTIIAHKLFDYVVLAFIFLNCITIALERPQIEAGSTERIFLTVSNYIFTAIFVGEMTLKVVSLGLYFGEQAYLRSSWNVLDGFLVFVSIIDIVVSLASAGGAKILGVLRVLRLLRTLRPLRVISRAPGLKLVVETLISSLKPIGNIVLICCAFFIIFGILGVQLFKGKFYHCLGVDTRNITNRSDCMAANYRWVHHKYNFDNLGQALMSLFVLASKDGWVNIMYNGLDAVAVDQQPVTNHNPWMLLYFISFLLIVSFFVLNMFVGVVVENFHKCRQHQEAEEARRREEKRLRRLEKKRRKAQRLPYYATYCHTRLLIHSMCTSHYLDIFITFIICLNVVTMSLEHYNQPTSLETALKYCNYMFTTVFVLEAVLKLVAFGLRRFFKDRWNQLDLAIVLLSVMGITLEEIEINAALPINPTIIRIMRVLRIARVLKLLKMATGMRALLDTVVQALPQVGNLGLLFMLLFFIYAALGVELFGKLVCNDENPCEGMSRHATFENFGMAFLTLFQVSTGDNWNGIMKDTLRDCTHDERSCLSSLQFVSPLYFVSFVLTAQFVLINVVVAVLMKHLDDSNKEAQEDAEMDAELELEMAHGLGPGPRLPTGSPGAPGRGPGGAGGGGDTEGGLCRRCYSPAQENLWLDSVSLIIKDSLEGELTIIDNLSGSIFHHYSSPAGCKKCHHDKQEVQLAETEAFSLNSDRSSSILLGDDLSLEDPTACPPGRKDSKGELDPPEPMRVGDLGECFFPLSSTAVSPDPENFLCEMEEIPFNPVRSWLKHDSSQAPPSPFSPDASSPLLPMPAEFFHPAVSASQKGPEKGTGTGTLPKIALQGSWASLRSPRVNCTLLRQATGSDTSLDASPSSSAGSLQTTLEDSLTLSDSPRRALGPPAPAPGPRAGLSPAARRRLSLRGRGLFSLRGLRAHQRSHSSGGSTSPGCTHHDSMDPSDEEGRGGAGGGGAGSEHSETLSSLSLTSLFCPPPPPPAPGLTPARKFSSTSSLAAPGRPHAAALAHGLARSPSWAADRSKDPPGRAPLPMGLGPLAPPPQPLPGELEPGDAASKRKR

Turning to `COC(=O)[C@H](Cc1c[nH]c2ccccc12)NC(=O)C(C)(c1c[nH]c2ccccc12)c1c[nH]c2ccccc12` [Compound 3, Methyl (2,2-di(1H-indol-3-yl)propanoyl)-L-tryptophanate], the IC50 in test [1] (FLIPR window current assay, transiently transfected HEK293T, N = 3, mean ± SEM, read-out: IC50 CaV3.1 (LVA CaVs)) was 58.6 ± 2.62 µM; in test [2] (FLIPR window current assay, HEK 293 stable, N = 3, mean ± SEM, read-out: IC50 CaV3.2 (LVA CaVs)) it was 6.59 ± 0.66 µM; in test [2] (FLIPR, representative curve, n = 4, read-out: IC50 of the representative concentration-response curve, CaV3.2 window current), 5.77 µM; in test [3] (FLIPR window current assay, HEK 293 stable, N = 3, mean ± SEM, read-out: IC50 CaV3.3 (LVA CaVs)), 3.81 ± 1.08 µM; in test [3] (FLIPR, representative curve, n = 4, read-out: IC50 of the representative concentration-response curve, CaV3.3 window current), 3.05 µM; in test [4], 39.8 ± 3.98 µM. The Emax (as a rule, the size of the effect at its maximum, as opposed to the concentration needed) in test [1] (FLIPR, n = 3, read-out: Emax, inhibition for CaV3.1) was found to be 75.5%; in test [2] (FLIPR, n = 3, read-out: Emax, inhibition for CaV3.2), 56.9%. Moreover, the “Kind of block of the CaV3.2 window current, in words” value in test [2] (FLIPR) was “potent partial blocking”. The “Potency at CaV3.3 window current relative to potency at HVA CaVs” value in test [3] (FLIPR, CaV3.3 better than HVA CaVs) is on record as greater than 8 fold.
